Results as given in US9593084B2 (Parion Sciences, Inc., priority 2012, dated 2017).
Marks after values point to notes of the source that are not given here.

Assays:
Sheep MCC = test: Mucociliary clearance (MCC) studies in sheep; type: in vivo
In short: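 MCC read-out: gamma-camera counts over right lung at 5-min intervals for one hour, expressed as 30-min slope, 1-h AUC or maximal clearance. Radiolabelled TSC inhaled 4 or 8 h after nebulized test agent (4 mL, optionally followed by HS) in intubated adult sheep.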

[1] = Plasma potassium levels in sheep of the MCC study; type: in vivo
Experimental: In these studies, adult sheep were restrained and nasally intubated with an endotracheal tube. Aerosolized test articles were administered over 10-15 minutes to sheep. Radiolabeled ^99mTc-sulfur colloid (TSC, 3.1 mg/mL; containing approximately 20 mCi) was then administered at a specified time four or eight hours after test article. The radiolabeled aerosol was administered through the endotracheal tube for about 5 minutes. The sheep were then extubated, and total radioactive counts in the lung were measured every 5 minutes for a 1-hour observation period. The rate of radiolabel clearance from the lung is representative of the MCC rate in the animal. The advantage of this system is that it closely simulates the human lung environment. The model also allows for the collection of simultaneous PK/PD information through plasma and urine sampling over the test period. There are also several techniques to measure the drug concentrations on the airway surface during the MCC measurements. These include the collection of exhaled breath condensates or a filter paper method to obtain ASL via bronchoscopy.
The compound of Comparative Example 1 can be seen on page 15 of US 2005/0080093 and as Compound 2 on page 90 of WO 2008/031048, and as Compound 2 on pages 42-43 of WO 2008/031028. […] In order to evaluate this potential, it is beneficial to have MCC activity in vivo and not cause elevation of plasma potassium at the useful dose. One model to assess this is the sheep MCC model described below.

[2] = system: human bronchial epithelial (HBE) cells; test: Airway surface liquid drug clearance and metabolism by human airway epithelium; type: in vitro ADME
Experimental: The disappearance of 33 from the apical surface and airway epithelial metabolism were assessed in human bronchial epithelial (HBE) cells (Table 3). In these experiments 25 μL of a 25 μM solution of ENaC blocker was added to the apical surface of HBE cells grown at an air/liquid interface, and the drug and metabolite concentration in the apical and basolateral compartment was measured over 2 h by UPLC.
Therefore, the compounds of formula (I) have a longer half-life on mucosal surfaces compared to these know compounds as evidenced by the data shown in Table G. The disappearance of Compound 33 from the apical surface and airway epithelial metabolism were assessed in HBE and compared to Comparative Example 1 (Table H). In these experiments 25 μL of a 25 μM solution of ENaC blocker was added to the apical surface of HBE cells grown at an air/liquid interface, and the drug concentration in the apical and basolateral compartment was measured over 2 h by UPLC.

[3] = sheep, aerosol, 0.24 nmol/kg (3 μM), MCC at 4 h post-dose
[4] = sheep, aerosol, 0.24 nmol/kg (3 μM), MCC at 8 h post-dose
[5] = HBE cells at air/liquid interface, 25 μL of 25 μM apical, mean ± SD

N=C(NCCCCc1ccc(C[C@H](N)C(=O)Nc2ccc(CCCN(C[C@H](O)[C@@H](O)[C@H](O)[C@H](O)CO)C[C@H](O)[C@@H](O)[C@H](O)[C@H](O)CO)cc2)c2ccccc12)NC(=O)c1nc(Cl)c(N)nc1N [Compound 33, 3,5-diamino-N—(N-(4-(4-((S)-2-amino-3-(4-(3-(bis((2S,3R,4R,5R)-2,3,4,5,6-pentahydroxyhexyl)amino)propyl)phenylamino)-3-oxopropyl)naphthalen-1-yl)butyl)carbamimidoyl)-6-chloropyrazine-2-carboxamide]
benefit to risk ratio (Sheep MCC; sheep MCC model): greater than 1000
effect on MCC compared to vehicle (Sheep MCC; sheep, 0.24 nmol/kg (3 μM), 4 h post-dose): enhanced MCC compared to vehicle control
Initial Slope (4.0-4.5 h) (Sheep MCC; sheep, 0.240 nmol/kg (30 μM), MCC at 4 h post-dose): 37.5* (4)
AUC (% CI × h) (Sheep MCC; sheep, 0.240 nmol/kg, MCC at 4 h post-dose): 17.4* (4) % CI × h
effect of hypertonic saline (HS) on the MCC effect (Sheep MCC; sheep, 7% HS dosed immediately following 0.24 nmol/kg, MCC eight hours after combined dosing): HS increased the effect of Compound 33 on MCC
duration of action on MCC vs. vehicle (Sheep MCC; sheep, 8 hours post dose): enhanced duration action of MCC vs. vehicle
AUC (% Cl-h) (Sheep MCC; [3]): 17.4* (4) % Cl-h
Initial Slope (4.0-4.5 h) (Sheep MCC; [3]): 37.5* (4)
AUC (% Cl-h) (Sheep MCC; [4]): 11.7* (4) % Cl-h
Initial Slope (8.0-8.5 h) (Sheep MCC; [4]): 25.8* (4)
MCC Highest Submaximal Dose (Sheep MCC; sheep, solution concentration given beside the dose): <0.24 nmol/kg (3 μM)
Therapeutic Ratio (Benefit/Risk) (Sheep MCC; sheep, top dose without plasma potassium elevation vs MCC highest submaximal dose): >100
effect on plasma potassium ([1]; sheep of the MCC study, at efficacious dose): free of potassium elevations
Therapeutic Index, times greater renal safety than Comparative Example 1 ([1]; sheep, versus Comparative Example 1): more than 1,000
% of Apical Mass as Metabolites (2 h) [2, 5]: 4%
% on Basolateral Side as Metabolites (2 h) [2, 5]: 32%
fate on the apical side after 2 h incubation ([2]; HBE cells, apical surface, 37° C.): mostly unmetabolized on the apical side
